Experimental findings from PMC3319192 (Molecular Pharmaceutics, 2012) are described below.

One series deals with T1, OATP1B1 A45G/L545S/T615I (Homo sapiens, UniProt Q9Y6L6, A45G/L545S/T615I).
T1 sequence (Q9Y6L6 1-691 A45G/L545S/T615I): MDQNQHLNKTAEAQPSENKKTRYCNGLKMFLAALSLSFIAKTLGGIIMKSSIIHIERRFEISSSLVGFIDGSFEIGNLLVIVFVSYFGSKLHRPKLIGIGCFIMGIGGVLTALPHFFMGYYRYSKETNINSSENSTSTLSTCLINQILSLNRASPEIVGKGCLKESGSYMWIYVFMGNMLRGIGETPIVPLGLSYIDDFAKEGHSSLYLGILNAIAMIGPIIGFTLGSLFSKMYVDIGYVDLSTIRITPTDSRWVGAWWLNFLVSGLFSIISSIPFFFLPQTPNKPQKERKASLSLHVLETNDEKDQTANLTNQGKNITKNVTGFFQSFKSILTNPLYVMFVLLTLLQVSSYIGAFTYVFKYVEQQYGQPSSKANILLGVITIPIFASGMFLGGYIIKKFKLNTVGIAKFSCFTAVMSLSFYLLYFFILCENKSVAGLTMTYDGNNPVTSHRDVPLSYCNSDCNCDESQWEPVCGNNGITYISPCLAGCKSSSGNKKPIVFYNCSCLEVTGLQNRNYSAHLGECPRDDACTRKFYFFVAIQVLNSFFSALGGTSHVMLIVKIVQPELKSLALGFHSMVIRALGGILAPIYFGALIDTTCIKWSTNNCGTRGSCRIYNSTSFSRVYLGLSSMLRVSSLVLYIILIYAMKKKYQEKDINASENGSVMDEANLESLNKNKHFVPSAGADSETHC

The next series has as its target T2, wildtype OATP1B3 (Homo sapiens, UniProt Q9NPD5).
T2 sequence (Q9NPD5 1-702): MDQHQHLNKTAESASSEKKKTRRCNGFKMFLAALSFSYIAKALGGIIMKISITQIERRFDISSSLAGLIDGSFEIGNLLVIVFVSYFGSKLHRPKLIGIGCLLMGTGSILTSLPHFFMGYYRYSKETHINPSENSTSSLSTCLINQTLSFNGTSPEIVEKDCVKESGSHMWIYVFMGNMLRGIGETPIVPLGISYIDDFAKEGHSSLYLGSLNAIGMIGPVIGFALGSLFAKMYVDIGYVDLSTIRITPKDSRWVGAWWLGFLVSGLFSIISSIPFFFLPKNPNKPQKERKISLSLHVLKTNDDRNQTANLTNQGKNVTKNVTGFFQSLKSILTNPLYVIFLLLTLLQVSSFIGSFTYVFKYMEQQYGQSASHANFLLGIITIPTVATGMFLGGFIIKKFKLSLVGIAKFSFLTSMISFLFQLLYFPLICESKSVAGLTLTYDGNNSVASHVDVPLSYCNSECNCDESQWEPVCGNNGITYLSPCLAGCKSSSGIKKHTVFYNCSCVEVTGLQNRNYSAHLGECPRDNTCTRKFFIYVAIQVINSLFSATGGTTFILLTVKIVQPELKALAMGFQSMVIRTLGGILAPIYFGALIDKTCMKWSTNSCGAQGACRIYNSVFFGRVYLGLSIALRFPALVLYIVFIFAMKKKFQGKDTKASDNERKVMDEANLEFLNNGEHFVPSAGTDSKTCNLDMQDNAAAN

Consider “L-aspartyl-L-tryosyl-L-methionylgylcyl-L-tryptophyl-L-methionyl-L-aspartyl-L-phenylalaninamide hydrogen sulfate ester [CCK-8]”, for which the Michaelis constant (Km) at OATP1B1 A45G/L545S/T615I came to 15.4 ± 4.2 µM; on wildtype OATP1B3, 6.5 ± 2 µM.
